IC50 data for 14 compounds are collected here from US20210070748A1, “INHIBITORS OF BRUTONS TYROSINE KINASE” (Pharmacyclics LLC, priority 2015, published 2021).

Structures are written as SMILES.

Type in all cases: biochemical
For one test, the target named is T1, TEC (Homo sapiens, UniProt P42680).
T1 sequence (P42680 1-631): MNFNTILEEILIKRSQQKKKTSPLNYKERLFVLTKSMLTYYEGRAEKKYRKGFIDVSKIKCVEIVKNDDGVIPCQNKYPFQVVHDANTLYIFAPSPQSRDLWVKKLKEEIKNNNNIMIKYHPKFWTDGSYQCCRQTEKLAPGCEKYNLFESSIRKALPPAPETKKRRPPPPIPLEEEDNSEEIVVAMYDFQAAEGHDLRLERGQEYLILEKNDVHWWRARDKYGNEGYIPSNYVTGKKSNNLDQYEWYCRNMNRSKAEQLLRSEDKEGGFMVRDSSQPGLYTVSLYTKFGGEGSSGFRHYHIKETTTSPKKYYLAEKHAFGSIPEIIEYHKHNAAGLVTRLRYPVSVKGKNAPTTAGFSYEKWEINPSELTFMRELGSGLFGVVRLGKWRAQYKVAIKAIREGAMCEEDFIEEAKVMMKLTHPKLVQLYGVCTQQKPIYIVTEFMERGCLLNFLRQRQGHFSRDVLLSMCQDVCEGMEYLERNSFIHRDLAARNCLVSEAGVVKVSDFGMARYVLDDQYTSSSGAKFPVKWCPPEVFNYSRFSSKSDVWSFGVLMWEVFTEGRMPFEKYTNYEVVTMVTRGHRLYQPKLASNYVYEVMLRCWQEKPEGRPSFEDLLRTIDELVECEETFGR
The test is described as follows: Inhibition of a panel of kinases, in vitro HotSpot kinase assay: TEC. The following applies: D-compounds panel data; 1 μM ATP. Here is the method: (§1) The degree of inhibition of a panel of kinases is determined using the in vitro HotSpot kinase assay (purified enzymes, ^33P-ATP, an appropriate substrate and 1 μM ATP).

The target of the next test is LCK (Homo sapiens, UniProt P06239). The test is described as follows: Inhibition of a panel of kinases, in vitro HotSpot kinase assay: LCK. Particulars: D-compounds panel data; 1 μM ATP; read-out: IC50 LCK.
Another test addresses EGFR (Homo sapiens, UniProt P00533). The test is described as follows: Inhibition of a panel of kinases, in vitro HotSpot kinase assay: EGFR. Particulars: D-compounds panel data; 1 μM ATP. Here is the method: as §1
A further test has as its target SRC (Homo sapiens, UniProt P12931). The test is described as follows: Inhibition of a panel of kinases, in vitro HotSpot kinase assay: SRC. The following applies: D-compounds panel data; 1 μM ATP. Here is the method:
as §1

A further test has as its target T2, ITK (Homo sapiens, UniProt Q08881).
T2 sequence (Q08881 1-620): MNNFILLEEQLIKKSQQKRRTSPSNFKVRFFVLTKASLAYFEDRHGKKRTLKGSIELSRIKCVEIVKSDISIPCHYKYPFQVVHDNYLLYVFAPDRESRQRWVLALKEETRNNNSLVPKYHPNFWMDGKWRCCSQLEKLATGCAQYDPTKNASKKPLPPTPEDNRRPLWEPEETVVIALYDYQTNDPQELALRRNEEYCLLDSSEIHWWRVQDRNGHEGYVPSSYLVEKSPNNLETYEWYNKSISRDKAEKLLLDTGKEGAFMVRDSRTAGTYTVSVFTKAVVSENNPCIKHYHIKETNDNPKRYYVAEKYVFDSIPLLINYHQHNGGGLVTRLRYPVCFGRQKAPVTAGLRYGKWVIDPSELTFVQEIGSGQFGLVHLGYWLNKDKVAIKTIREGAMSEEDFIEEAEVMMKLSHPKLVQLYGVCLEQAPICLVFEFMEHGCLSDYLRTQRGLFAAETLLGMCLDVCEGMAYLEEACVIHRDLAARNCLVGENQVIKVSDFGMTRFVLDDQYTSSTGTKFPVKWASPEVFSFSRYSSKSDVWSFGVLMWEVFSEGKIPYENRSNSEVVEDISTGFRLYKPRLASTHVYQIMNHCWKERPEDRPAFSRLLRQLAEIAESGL
The test is described as follows: Inhibition of a panel of kinases, in vitro HotSpot kinase assay: ITK. Particulars: D-compounds panel data; 1 μM ATP. As for the experimental part: as §1

The term IC50 denotes the concentration that gives 50% inhibition.

SRC, sequence (P12931 whole entry): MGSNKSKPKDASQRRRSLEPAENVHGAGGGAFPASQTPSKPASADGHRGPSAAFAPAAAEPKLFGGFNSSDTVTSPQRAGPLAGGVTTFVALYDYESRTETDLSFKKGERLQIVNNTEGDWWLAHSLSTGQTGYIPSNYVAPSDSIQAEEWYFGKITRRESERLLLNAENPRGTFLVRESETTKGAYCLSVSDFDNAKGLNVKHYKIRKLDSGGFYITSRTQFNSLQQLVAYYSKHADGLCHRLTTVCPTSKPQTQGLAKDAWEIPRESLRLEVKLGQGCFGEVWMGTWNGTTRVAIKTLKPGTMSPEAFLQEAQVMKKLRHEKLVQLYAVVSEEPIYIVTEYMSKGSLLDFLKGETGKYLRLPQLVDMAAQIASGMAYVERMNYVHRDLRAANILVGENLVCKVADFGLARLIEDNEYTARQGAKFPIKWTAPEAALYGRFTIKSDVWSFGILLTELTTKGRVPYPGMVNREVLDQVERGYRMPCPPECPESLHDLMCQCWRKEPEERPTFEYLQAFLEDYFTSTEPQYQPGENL
LCK, sequence (P06239 whole entry): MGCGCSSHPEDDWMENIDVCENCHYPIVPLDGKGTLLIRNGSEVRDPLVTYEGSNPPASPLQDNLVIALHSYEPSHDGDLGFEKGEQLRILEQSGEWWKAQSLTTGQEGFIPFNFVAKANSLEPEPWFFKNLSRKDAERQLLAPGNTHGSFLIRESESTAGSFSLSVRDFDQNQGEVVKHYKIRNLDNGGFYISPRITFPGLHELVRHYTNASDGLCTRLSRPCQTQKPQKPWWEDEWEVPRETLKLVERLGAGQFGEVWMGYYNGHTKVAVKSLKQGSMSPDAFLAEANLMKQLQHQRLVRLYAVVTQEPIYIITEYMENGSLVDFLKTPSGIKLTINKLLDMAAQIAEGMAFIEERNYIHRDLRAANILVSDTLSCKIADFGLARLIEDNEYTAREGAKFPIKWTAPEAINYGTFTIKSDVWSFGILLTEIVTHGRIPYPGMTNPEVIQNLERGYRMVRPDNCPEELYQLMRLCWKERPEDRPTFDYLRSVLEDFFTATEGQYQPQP
EGFR, sequence (P00533 25-1210): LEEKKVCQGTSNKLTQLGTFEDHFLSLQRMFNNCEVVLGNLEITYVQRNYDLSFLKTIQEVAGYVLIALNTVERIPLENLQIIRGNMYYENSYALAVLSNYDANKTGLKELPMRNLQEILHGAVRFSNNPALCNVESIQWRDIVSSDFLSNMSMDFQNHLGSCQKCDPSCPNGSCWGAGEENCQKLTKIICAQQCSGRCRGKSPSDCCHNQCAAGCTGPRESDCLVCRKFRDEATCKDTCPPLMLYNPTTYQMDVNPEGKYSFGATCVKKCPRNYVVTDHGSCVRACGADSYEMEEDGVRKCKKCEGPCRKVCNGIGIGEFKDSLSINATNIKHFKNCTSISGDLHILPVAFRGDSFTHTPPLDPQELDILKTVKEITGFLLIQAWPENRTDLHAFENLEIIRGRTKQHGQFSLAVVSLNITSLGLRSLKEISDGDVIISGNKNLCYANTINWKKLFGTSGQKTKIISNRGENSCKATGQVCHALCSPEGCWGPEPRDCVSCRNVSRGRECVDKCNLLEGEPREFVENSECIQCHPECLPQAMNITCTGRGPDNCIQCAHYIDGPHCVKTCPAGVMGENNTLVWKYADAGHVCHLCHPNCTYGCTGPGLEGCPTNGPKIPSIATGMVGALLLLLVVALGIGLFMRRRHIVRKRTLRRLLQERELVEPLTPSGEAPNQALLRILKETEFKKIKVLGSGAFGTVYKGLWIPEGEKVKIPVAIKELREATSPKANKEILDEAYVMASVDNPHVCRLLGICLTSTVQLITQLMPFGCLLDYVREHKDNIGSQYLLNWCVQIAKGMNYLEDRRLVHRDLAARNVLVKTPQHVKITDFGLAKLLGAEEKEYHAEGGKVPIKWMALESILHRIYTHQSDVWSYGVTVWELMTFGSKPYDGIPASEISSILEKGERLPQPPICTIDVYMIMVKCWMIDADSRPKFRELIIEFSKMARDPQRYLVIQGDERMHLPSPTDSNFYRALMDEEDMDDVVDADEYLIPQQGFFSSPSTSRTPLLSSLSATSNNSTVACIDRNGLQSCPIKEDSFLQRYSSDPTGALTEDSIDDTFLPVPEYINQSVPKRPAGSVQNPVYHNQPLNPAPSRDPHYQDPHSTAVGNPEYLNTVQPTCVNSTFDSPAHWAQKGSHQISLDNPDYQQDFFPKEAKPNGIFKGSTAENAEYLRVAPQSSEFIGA

Turning to `C[C@H]1CC[C@@H](NC(=O)N(C)C)CN1c1cnc(C(N)=O)c(Nc2cnn(C)c2)n1` [Example D-152, 5-[(2S,5R)-5-[(dimethylcarbamoyl)amino]-2-methylpiperidin-1-yl]-3-[(1-methyl-1H-pyrazol-4-yl)amino]pyrazine-2-carboxamide], the IC50 was 10 to 100 nM at TEC; 1000 to 10000 nM on LCK; 1000 to 10000 nM against EGFR; 100 to 1000 nM on SRC; 1000 to 10000 nM against ITK.
On to `C[C@@H]1[C@H](NC(=O)N(C)C)CCCN1c1cnc(C(N)=O)c(Nc2ccc3cccnc3c2)n1` [Example D-121, 5-[(2R,3R)-3-[(dimethylcarbamoyl)amino]-2-methylpiperidin-1-yl]-3-[(quinolin-7-yl)amino]pyrazine-2-carboxamide], for which the IC50 on TEC fell in the range of 1000 to 10000 nM; on LCK, 100 to 1000 nM; against EGFR it was 1000 to 10000 nM; on SRC it was 100 to 1000 nM; on ITK it was 1000 to 10000 nM.
As to `CC(C)n1cc(Nc2nc(N3CCC[C@@H](NC(=O)c4ccc(C5CC5)cc4F)[C@H]3C)cnc2C(N)=O)cn1` [Example D-123, 5-[(2R,3R)-3-(4-cyclopropyl-2-fluorobenzamido)-2-methylpiperidin-1-yl]-3-{[1-(propan-2-yl)-1H-pyrazol-4-yl]amino}pyrazine-2-carboxamide], the IC50 was 10 to 100 nM on TEC; 100 to 1000 nM at LCK; 1000 to 10000 nM against EGFR; 100 to 1000 nM on SRC; 100 to 1000 nM on ITK.
`CC(C)N1CCN(c2ccc(Nc3nc(N4CCC[C@@H](NC(=O)c5ccc(C6CC6)cc5F)[C@H]4C)cnc3C(N)=O)cc2)CC1` [Example D-7, 5-[(2R,3R)-3-(4-cyclopropyl-2-fluorobenzamido)-2-methylpiperidin-1-yl]-3-({4-[4-(propan-2-yl)piperazin-1-yl]phenyl}amino)pyrazine-2-carboxamide]: the IC50 on TEC was in the range of 10 to 100 nM; at LCK, 10 to 100 nM; against EGFR, 100 to 1000 nM; against SRC, 10 to 100 nM; on ITK, 10 to 100 nM.
On to `C[C@@H]1[C@H](NC(=O)N(C)C)CCCN1c1cnc(C(N)=O)c(Nc2ccc(CN3CCN(C)CC3)cc2)c1` [Example D-120, 5-[(2R,3R)-3-[(dimethylcarbamoyl)amino]-2-methylpiperidin-1-yl]-3-({4-[(4-methylpiperazin-1-yl)methyl]phenyl}amino)pyridine-2-carboxamide], for which the IC50 against TEC is above 10000 nM; on LCK, 1000 to 10000 nM; against EGFR, above 10000 nM; at SRC, 1000 to 10000 nM; on ITK it was 1000 to 10000 nM.
For the compound `C[C@@H]1[C@H](NC(=O)c2ccc(C3CC3)cc2F)CCCN1c1cnc(C(N)=O)c(Nc2ccc(N3CCN(C)CC3=O)cc2)n1` [Example D-10, 5-[(2R,3R)-3-(4-cyclopropyl-2-fluorobenzamido)-2-methylpiperidin-1-yl]-3-{[4-(4-methyl-2-oxopiperazin-1-yl)phenyl]amino}pyrazine-2-carboxamide], the IC50 at TEC was 10 to 100 nM; at LCK it was 100 to 1000 nM; at EGFR it was 100 to 1000 nM; on SRC it was 100 to 1000 nM; against ITK, 100 to 1000 nM.
`Cc1cc(Nc2nc(N3CCC[C@@H](n4ccc5cc(C6CC6)ccc5c4=O)C3)cnc2C(N)=O)sn1` [Example D-166, 5-[(3R)-3-(6-cyclopropyl-1-oxo-1,2-dihydroisoquinolin-2-yl)piperidin-1-yl]-3-[(3-methyl-1,2-thiazol-5-yl)amino]pyrazine-2-carboxamide]: the IC50 against TEC, on LCK, against EGFR, against SRC and at ITK was above 10000 nM in each case.
In the case of `C[C@@H]1[C@H](NC(=O)c2ccc(C3CC3)cc2F)CCCN1c1cnc(C(N)=O)c(Nc2ccc3cccnc3c2)n1` [Example D-124, 5-[(2R,3R)-3-(4-cyclopropyl-2-fluorobenzamido)-2-methylpiperidin-1-yl]-3-[(quinolin-7-yl)amino]pyrazine-2-carboxamide], the IC50 on TEC was 1000 to 10000 nM; at LCK it was above 10000 nM; against EGFR, above 10000 nM; against SRC it was above 10000 nM; at ITK it was above 10000 nM.
Take `C[C@@H]1CC[C@@H](NC(=O)c2ccc(C3CC3)cc2)CN1c1cnc(C(N)=O)c(Nc2cnn(C)c2)n1` [Example D-143, 5-[(2R,5R)-5-(4-cyclopropylbenzamido)-2-methylpiperidin-1-yl]-3-[(1-methyl-1H-pyrazol-4-yl)amino]pyrazine-2-carboxamide]: the IC50 was 100 to 1000 nM at TEC; 1000 to 10000 nM at LCK; 1000 to 10000 nM against EGFR; 1000 to 10000 nM on SRC; above 10000 nM at ITK.
For the compound `C[C@@H]1[C@H](NC(=O)c2ccc(C3CC3)cc2F)CCCN1c1cnc(C(N)=O)c(Nc2cc(CN(C)C)ns2)n1` [Example D-122, 5-[(2R,3R)-3-(4-cyclopropyl-2-fluorobenzamido)-2-methylpiperidin-1-yl]-3-({3-[(dimethylamino)methyl]-1,2-thiazol-5-yl}amino)pyrazine-2-carboxamide], the IC50 fell in the range of 10 to 100 nM at TEC; 10 to 100 nM on LCK; 1000 to 10000 nM at EGFR; 10 to 100 nM at SRC; 100 to 1000 nM at ITK.
With `C[C@@H]1[C@H](NC(=O)c2ccc(C3CC3)cc2F)CCCN1c1cnc(C(N)=O)c(Nc2ccc(CN3CCN(C)CC3)cc2)n1` [Example D-113, 5-[(2R,3R)-3-(4-cyclopropyl-2-fluorobenzamido)-2-methylpiperidin-1-yl]-3-({4-[(4-methylpiperazin-1-yl)methyl]phenyl}amino)pyrazine-2-carboxamide], the IC50 lay in the range of 10 to 100 nM on TEC; 10 to 100 nM on LCK; 100 to 1000 nM against EGFR; 100 to 1000 nM at SRC; 100 to 1000 nM against ITK.
Turning to `C[C@H]1CC[C@H](NC(=O)c2ccc(C3CC3)cc2)CN1c1cnc(C(N)=O)c(Nc2cnn(C)c2)n1` [Example D-144, 5-[(2S,5S)-5-(4-cyclopropylbenzamido)-2-methylpiperidin-1-yl]-3-[(1-methyl-1H-pyrazol-4-yl)amino]pyrazine-2-carboxamide], the IC50 against TEC was 1000 to 10000 nM; on LCK, 1000 to 10000 nM; against EGFR, above 10000 nM; at SRC it was 1000 to 10000 nM; against ITK it was above 10000 nM.
Turning to `C[C@@H]1[C@H](NC(=O)c2ccc(C3CC3)cc2F)CCCN1c1cnc(C(N)=O)c(Nc2ccc(N3CCN(C)CC3)cn2)n1` [Example D-8, 5-[(2R,3R)-3-(4-cyclopropyl-2-fluorobenzamido)-2-methylpiperidin-1-yl]-3-{[5-(4-methylpiperazin-1-yl)pyridin-2-yl]amino}pyrazine-2-carboxamide], the IC50 was 1000 to 10000 nM on TEC; above 10000 nM at LCK; above 10000 nM against EGFR; above 10000 nM on SRC; above 10000 nM against ITK.
As for `CN(C)c1ccc2c(=O)n([C@@H]3CCCN(c4cnc(C(N)=O)c(Nc5cnn(C)c5)n4)C3)ccc2c1` [Example D-155, 5-[(3R)-3-[6-(dimethylamino)-1-oxo-1,2-dihydroisoquinolin-2-yl]piperidin-1-yl]-3-[(1-methyl-1H-pyrazol-4-yl)amino]pyrazine-2-carboxamide], the IC50 against TEC lay in the range of 10 to 100 nM; on LCK, 100 to 1000 nM; at EGFR, 1000 to 10000 nM; at SRC, 100 to 1000 nM; on ITK it was 100 to 1000 nM.
